Results: US6358522B1, “Pharmaceutical compositions containing lipase inhibitor” (Hoffmann-La Roche Inc., priority 1998, dated 2002)

Assay: Anal leakage of oil in rats on high fat diet with diet-admixed orlistat
Assay type: in vivo
From the text: Rats maintained on high fat diet were used as models. […] However, the amount of oil leakage could not easily be determined. Due to coprophagia and extensive grooming activity the rats distributed the oil to a large extent over their fur. Moreover, this stressful condition of unsuccessful grooming provoked considerable excitation of the animals. The area of greasy fur increased in proportion to the amount of unabsorbed fat and was reduced by dietary admixture of selected examples of the above defined food additives. However, for reasons of animal care for comparative evaluation of the additives a surrogate parameter was used to assess effects on oil leakage. Following a meal containing orlistat, unabsorbed fat is temporarily stored in the caecum of the rat prior to excretion. The fat is partly present as floating liquid oil, partly associated with unabsorbable solids.

For `CCCCCCCCCCC[C@@H](C[C@@H]1OC(=O)[C@H]1CCCCCC)OC(=O)[C@H](CC(C)C)NC=O` [orlistat, N-formyl-L-leucine ester with (3S,4S)-3-hexyl-4-[(2S)-2-hydroxy-tridecyl]-2-oxetanone], the “Anal leakage of oil” value was “provoked anal leakage of liquid oil”.
